Values after ≈ are worked out from the molar mass of the structure shown.
Assay: Compound was tested for cytotoxicity against L929 fibroblast cell lines in mouse
Format: functional, cell-based
With `C/C(=C\c1csc(C)n1)[C@@H]1CC2OC(C)(C)OC2CCC[C@H](C)[C@H](O)[C@@H](C)C(=O)C(C)(C)[C@@H](O)CC(=O)O1` (stereo partly drawn) the IC50 was 0.15 µg/mL (≈ 0.272 µM). With `C/C(=C\c1csc(C)n1)[C@@H]1C/C=C\CCC[C@H](C)[C@H](O)[C@@H](C)C(=O)C(C)(C)[C@@H](O)CC(=O)O1` [EPOTHILONE C] the IC50 was 0.1 µg/mL (≈ 0.209 µM). With `C/C(=C\c1csc(C)n1)[C@@H]1CC(O)C(O)CCC[C@H](C)[C@H](O)[C@@H](C)C(=O)C(C)(C)[C@@H](O)CC(=O)O1` (stereo partly drawn) the IC50 was > 4 µg/mL.

Assay: Cytotoxicity against L929 fibroblast cell line; Weak cytotoxic activity.
Format: functional, cell-based, Mus musculus
In the case of `C/C(=C\c1csc(C)n1)[C@@H]1C[C@H](O)[C@@]2(C)CCC[C@H](C)[C@H](O)[C@@H](C)C(=O)C(C)(C)C(CC(=O)O1)O2`, the IC50 is reported as “Weak cytotoxic activity”. For `C/C(=C\c1csc(C)n1)[C@@H]1C[C@H](O)[C@@](C)(O)CCC[C@H](C)[C@H](O)[C@@H](C)C(=O)C(C)(C)C(O)CC(=O)O1` (stereo partly drawn), the IC50 was “Weak cytotoxic activity”. In the case of `C/C(=C\c1csc(C)n1)[C@@H]1C[C@H]2OC(=O)C[C@H](O)C(C)(C)C(=O)[C@H](C)[C@@H](O)[C@@H](C)CCC[C@H]2O1`, the IC50 is reported as “Weak cytotoxic activity”. In the case of `C/C(=C\c1csc(C)n1)[C@@H](O)C[C@H]1OC(=O)C[C@H](O)C(C)(C)C(=O)[C@H](C)[C@@H](O)[C@@H](C)CCC[C@@]1(C)O`, the IC50 is reported as “Weak cytotoxic activity”. For `C/C(=C\c1csc(C)n1)[C@@H]1C[C@@H](Cl)[C@H](O)CCC[C@H](C)[C@H](O)[C@@H](C)C(=O)C(C)(C)[C@@H](O)CC(=O)O1`, the IC50 was “Weak cytotoxic activity”. With `C/C(=C\c1csc(C)n1)[C@H]1C[C@H]2OC(=O)C[C@H](O)C(C)(C)C(=O)[C@H](C)[C@@H](O)[C@@H](C)CCC[C@H]2O1` the IC50 was “Weak cytotoxic activity”. With `C/C(=C\c1csc(C)n1)[C@@H]1C[C@@H]2OC(C)(C)O[C@@H]2CCC[C@H](C)[C@H](O)[C@@H](C)C(=O)C(C)(C)C(O)CC(=O)O1` (stereo partly drawn) the IC50 was “Weak cytotoxic activity”. With `C/C(=C\c1csc(C)n1)[C@@H]1CCCCCC[C@H](C)[C@H](O)[C@@H](C)C(=O)C(C)(C)C(O)CC(=O)O1` (stereo partly drawn) the IC50 was “Weak cytotoxic activity”. In the case of `C/C(=C\c1csc(C)n1)[C@@H]1C[C@@H]2O[C@@H]2CCC[C@H](C)[C@H](O)[C@@H](C)C(=O)C(C)(C)[C@@H](O)CC(=O)O1` [EPOTHILONE A], the IC50 is reported as “Weak cytotoxic activity”. For `Cc1nc(CC(C)C(O)C[C@H]2OC(=O)C[C@H](O)C(C)(C)C(=O)[C@H](C)[C@@H](O)[C@@H](C)CCC[C@H]2O)cs1` (stereo partly drawn), the IC50 was “Weak cytotoxic activity”. With `C/C(=C\c1csc(C)n1)[C@H]1C[C@H]2OCC[C@H](O)C(C)(C)C(=O)[C@H](C)[C@@H](O)[C@@H](C)CCC[C@H]2O1` the IC50 was “Weak cytotoxic activity”. In the case of `C/C(=C\c1csc(C)n1)[C@@H]1C[C@H](O)[C@H](O)CCC[C@H](C)[C@H](O)[C@@H](C)C(=O)C(C)(C)C(O)CC(=O)O1` (stereo partly drawn), the IC50 is reported as “Weak cytotoxic activity”. In the case of `COC(C[C@H]1OC(=O)C[C@H](O)C(C)(C)C(=O)[C@H](C)[C@@H](O)[C@@H](C)CCC[C@H]1O)C(C)Cc1csc(C)n1` (stereo partly drawn), the IC50 is reported as “Weak cytotoxic activity”. For `C/C(=C\c1csc(C)n1)[C@@H]1C[C@@H]2O[C@]2(C)CCC[C@H](C)[C@H](O)[C@@H](C)C(=O)C(C)(C)[C@@H](O)CC(=O)O1` [PATUPILONE], the IC50 was “Weak cytotoxic activity”. In the case of `C/C(=C\c1csc(C)n1)[C@@H]1C[C@H](O)[C@@](C)(Cl)CCC[C@H](C)[C@H](O)[C@@H](C)C(=O)C(C)(C)[C@@H](O)CC(=O)O1`, the IC50 is reported as “Weak cytotoxic activity”. With `C/C(=C\c1csc(C)n1)[C@@H]1C[C@H](O)[C@@H](Cl)CCC[C@H](C)[C@H](O)[C@@H](C)C(=O)C(C)(C)[C@@H](O)CC(=O)O1` the IC50 was “Weak cytotoxic activity”. In the case of `C/C(=C\c1csc(C)n1)[C@@H]1C[C@@H](O)[C@@H](O)CCC[C@H](C)[C@H](O)[C@@H](C)C(=O)C(C)(C)C(O)CC(=O)O1` (stereo partly drawn), the IC50 is reported as “Weak cytotoxic activity”. For `C/C(=C\c1csc(C)n1)[C@@H]1C[C@@H](O)[C@H](O)CCC[C@H](C)[C@H](O)[C@@H](C)C(=O)C(C)(C)C(O)CC(=O)O1` (stereo partly drawn), the IC50 was “Weak cytotoxic activity”. In the case of `C/C(=C\c1csc(C)n1)[C@@H]1C[C@H]2OCC[C@H](O)C(C)(C)C(=O)[C@H](C)[C@@H](O)[C@@H](C)CCC[C@H]2O1`, the IC50 is reported as “Weak cytotoxic activity”. In the case of `C/C(=C\c1csc(C)n1)[C@H](O)C[C@H]1OC(=O)C[C@H](O)C(C)(C)C(=O)[C@H](C)[C@@H](O)[C@@H](C)CCC[C@@]1(C)O`, the IC50 is reported as “Weak cytotoxic activity”.
